Data as given in US20030190692A1, “Method for measuring the activity of the blood clotting factor XIIIA” (priority 2000, published 2003).

Key:
FXIIIa [1] = conditions: animal models; Leidy et al. 1990; cited from earlier work
FXIIIa [2] = target: FXIIIa (Homo sapiens, UniProt P00488); experiment: biochemical
FXIIIa (Homo sapiens, UniProt P00488), sequence (P00488 39-732 limits assumed): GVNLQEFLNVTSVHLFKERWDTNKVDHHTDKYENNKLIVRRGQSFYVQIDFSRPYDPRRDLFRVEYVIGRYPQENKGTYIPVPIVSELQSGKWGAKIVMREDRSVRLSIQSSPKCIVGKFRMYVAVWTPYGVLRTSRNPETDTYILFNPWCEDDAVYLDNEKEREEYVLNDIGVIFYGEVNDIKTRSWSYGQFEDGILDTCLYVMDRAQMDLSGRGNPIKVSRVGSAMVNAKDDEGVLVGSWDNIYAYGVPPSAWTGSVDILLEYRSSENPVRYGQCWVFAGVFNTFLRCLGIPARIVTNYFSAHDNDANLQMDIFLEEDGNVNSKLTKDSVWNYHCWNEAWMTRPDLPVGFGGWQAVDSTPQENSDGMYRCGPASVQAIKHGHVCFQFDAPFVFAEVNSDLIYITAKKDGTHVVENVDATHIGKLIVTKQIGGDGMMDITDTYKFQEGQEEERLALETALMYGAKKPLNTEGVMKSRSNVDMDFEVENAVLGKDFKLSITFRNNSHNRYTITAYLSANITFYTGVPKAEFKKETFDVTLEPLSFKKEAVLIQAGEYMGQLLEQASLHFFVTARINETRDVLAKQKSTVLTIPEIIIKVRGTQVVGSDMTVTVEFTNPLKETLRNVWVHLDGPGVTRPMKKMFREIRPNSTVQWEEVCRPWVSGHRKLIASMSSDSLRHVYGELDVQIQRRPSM

Row | Compound | Effect on thrombolysis by a plasminogen activator (FXIIIa [1]) | IC50 (FXIIIa [2]) [µM]
1 | CC(=O)CSc1n[n+]2c(C)csc2s1.[O-][Cl+3]([O-])([O-])[O-] [L722151] | improve the thrombolysis | –
2 | O=C(O)CI [iodoacetic acid] | – | 147
